What was measured:
[1] = Pharmacokinetics of HMME in human body; type: in vivo
Experimental: Porphyrin-based photosensitizing drugs were injected intravenously at a dose of 2.5 and 5.0 mg/kg body weight for 20 minutes with a constant flow rate, and the pharmokinetics measured. Blood samples were taken at 5, 10, 20, 25, 30, 40, 50, 80, 110, 140, 200, 260 and 380 minutes separately to measure the serum concentrations of porphyrin-based photosensitizing drugs.

port wine stain lesion = test: PDT for PWS, therapeutic effect assessment; type: in vivo, human
Experimental: The effectiveness of PWS treatment with […] is categorized as being Excellent (I), Good (II), Effective (III) or Ineffective (IV). […] [table] A solution of 1 ml saline was injected in the superficial vein (e.g. median cubital vein) of patients to ensure no liquid leaked into tissues adjacent to the blood vessels into which the injection was made. At the same site, HMME was injected intravenously for 20 minutes with a constant flow rate by using an infusion pump. The doses applied were 2.5 mg/kg body weight or 5.0 mg/kg body weight. Next, 2-4 ml of saline solution was again injected to prevent the drugs from aggregating locally. Irradiation with KTP532 laser was then applied to the patient's lesion site 0-10 minutes after the start of injection, for a total duration of irradiation of either 20 minutes (denoted as the 20 min group), or 30 minutes (denoted as the 30 minute group). […] When irradiation was started immediately after the start of injection, the overlap between the injection and irradiation was about 20 minutes, when irradiation started 5 minutes after the start of injection, the overlap between drug injection and light irradiation was approximately 15 minutes, and when irradiation was started 10 minutes after the start of injection, the overlap was about 10 minutes. The therapeutic results were measured 8 weeks after the treatment. A dose of 5.0 mg/kg body weight of the poryphin based drug was injected, total irradiation durations were 20 min and 30 min respectively, and the effects and adverse effects were assessed. In this example doses of 2.5 and 5.0 mg/kg body weight respectively, were applied, the patient was irradiated for 20 min, and the therapeutic effects and the adverse effects were assessed.

[2] = 2.5 mg/kg iv over 20 min at constant flow rate
[3] = 5.0 mg/kg iv over 20 min at constant flow rate
[4] = 5.0 mg/kg, irradiation 20 min, 8 weeks after treatment
[5] = 5.0 mg/kg, irradiation 30 min, 8 weeks after treatment
[6] = Part B, 2.5 mg/kg group, irradiated 20 min, 8 weeks after treatment
[7] = Part B, 2.5 mg/kg group, irradiated 20 min, 8 weeks after treatment, 2.5 mg/kg
[8] = Part B, 5.0 mg/kg group, irradiated 20 min, 8 weeks after treatment
[9] = Part B, Purple type PWS, 2.5 mg/kg group, irradiated 20 min
[10] = Part B, Purple type PWS, 5.0 mg/kg group, irradiated 20 min
[11] = Part B, Red type PWS, 2.5 mg/kg group, irradiated 20 min
[12] = Part B, Red type PWS, 5.0 mg/kg group, irradiated 20 min
[13] = Part B, Thickening type PWS, 2.5 mg/kg group, irradiated 20 min
[14] = Part B, Thickening type PWS, 5.0 mg/kg group, irradiated 20 min
[15] = Purple type PWS, 5.0 mg/kg, irradiation 20 min
[16] = Purple type PWS, 5.0 mg/kg, irradiation 30 min
[17] = Red type PWS, 5.0 mg/kg, irradiation 20 min
[18] = Red type PWS, 5.0 mg/kg, irradiation 30 min
[19] = Thickening type PWS, 5.0 mg/kg, irradiation 20 min
[20] = Thickening type PWS, 5.0 mg/kg, irradiation 30 min

AUC0˜n [1, 2]: 6.342 ± 2.824 µg·h/mL
Cmax [1, 2]: 17.491 ± 7.045 µg/mL
t1/2 [1, 2]: 1.26 ± 0.33 h
AUC0˜n [1, 3]: 17.531 ± 3.467 µg·h/mL
Cmax [1, 3]: 35.724 ± 4.539 µg/mL
t1/2 [1, 3]: 1.31 ± 0.33 h
Substance: hematoporphyrin monomethyl ether [HMME]
Excellent (cases) (port wine stain lesion; [4]): 2
Excellent rate % (port wine stain lesion; [4]): 10.0%
Good (cases) (port wine stain lesion; [4]): 9
Ineffective (cases) (port wine stain lesion; [4]): 4
Moderate (cases) (port wine stain lesion; [4]): 5
Response rate % (port wine stain lesion; [4]): 80.0%
Significant response rate % (port wine stain lesion; [4]): 55.0%
Excellent (cases) (port wine stain lesion; [5]): 7
Excellent rate % (port wine stain lesion; [5]): 36.8%
Good (cases) (port wine stain lesion; [5]): 8
Ineffective (cases) (port wine stain lesion; [5]): 1
Moderate (cases) (port wine stain lesion; [5]): 3
Response rate % (port wine stain lesion; [5]): 94.7%
Significant response rate % (port wine stain lesion; [5]): 78.9%
Excellent (cases) (port wine stain lesion; [6]): 0
Good (cases) (port wine stain lesion; [6]): 1
Ineffective (cases) (port wine stain lesion; [6]): 24
Moderate (cases) (port wine stain lesion; [6]): 15
Significant response rate % (port wine stain lesion; [6]): 2.5%
Excellent rate % (port wine stain lesion; [7]): 0%
Response rate % (port wine stain lesion; [7]): 40%
Excellent (cases) (port wine stain lesion; [8]): 2
Excellent rate % (port wine stain lesion; [8]): 5.0%
Good (cases) (port wine stain lesion; [8]): 14
Ineffective (cases) (port wine stain lesion; [8]): 10
Moderate (cases) (port wine stain lesion; [8]): 14
Response rate % (port wine stain lesion; [8]): 75.0%
Significant response rate % (port wine stain lesion; [8]): 40.0%
Excellent (cases) (port wine stain lesion; [9]): 0
Excellent rate % (port wine stain lesion; [9]): 0.0%
Good (cases) (port wine stain lesion; [9]): 0
Ineffective (cases) (port wine stain lesion; [9]): 14
Moderate (cases) (port wine stain lesion; [9]): 3
Response rate % (port wine stain lesion; [9]): 17.6%
Significant response rate % (port wine stain lesion; [9]): 0.0%
Excellent (cases) (port wine stain lesion; [10]): 0
Excellent rate % (port wine stain lesion; [10]): 0.0%
Good (cases) (port wine stain lesion; [10]): 7
Ineffective (cases) (port wine stain lesion; [10]): 8
Moderate (cases) (port wine stain lesion; [10]): 9
Response rate % (port wine stain lesion; [10]): 66.7%
Significant response rate % (port wine stain lesion; [10]): 29.2%
Excellent (cases) (port wine stain lesion; [11]): 0
Excellent rate % (port wine stain lesion; [11]): 0.0%
Good (cases) (port wine stain lesion; [11]): 1
Ineffective (cases) (port wine stain lesion; [11]): 7
Moderate (cases) (port wine stain lesion; [11]): 8
Response rate % (port wine stain lesion; [11]): 56.3%
Significant response rate % (port wine stain lesion; [11]): 6.3%
Excellent (cases) (port wine stain lesion; [12]): 2
Excellent rate % (port wine stain lesion; [12]): 14.3%
Good (cases) (port wine stain lesion; [12]): 7
Ineffective (cases) (port wine stain lesion; [12]): 1
Moderate (cases) (port wine stain lesion; [12]): 4
Response rate % (port wine stain lesion; [12]): 92.9%
Significant response rate % (port wine stain lesion; [12]): 64.3%
Excellent (cases) (port wine stain lesion; [13]): 0
Excellent rate % (port wine stain lesion; [13]): 0/7
Good (cases) (port wine stain lesion; [13]): 0
Ineffective (cases) (port wine stain lesion; [13]): 3
Moderate (cases) (port wine stain lesion; [13]): 4
Response rate % (port wine stain lesion; [13]): 4/7
Significant response rate % (port wine stain lesion; [13]): 0/7
Excellent (cases) (port wine stain lesion; [14]): 0
Excellent rate % (port wine stain lesion; [14]): 0/2
Good (cases) (port wine stain lesion; [14]): 0
Ineffective (cases) (port wine stain lesion; [14]): 1
Moderate (cases) (port wine stain lesion; [14]): 1
Response rate % (port wine stain lesion; [14]): 1/2
Significant response rate % (port wine stain lesion; [14]): 0/2
Excellent (cases) (port wine stain lesion; [15]): 0
Excellent rate % (port wine stain lesion; [15]): 0/0
Good (cases) (port wine stain lesion; [15]): 2
Ineffective (cases) (port wine stain lesion; [15]): 1
Moderate (cases) (port wine stain lesion; [15]): 3
Response rate % (port wine stain lesion; [15]): 5/6
Significant response rate % (port wine stain lesion; [15]): 2/6
Excellent (cases) (port wine stain lesion; [16]): 1
Excellent rate % (port wine stain lesion; [16]): 1/8
Good (cases) (port wine stain lesion; [16]): 5
Ineffective (cases) (port wine stain lesion; [16]): 0
Moderate (cases) (port wine stain lesion; [16]): 2
Response rate % (port wine stain lesion; [16]): 8/8
Significant response rate % (port wine stain lesion; [16]): 6/8
Excellent (cases) (port wine stain lesion; [17]): 2
Excellent rate % (port wine stain lesion; [17]): 2/11
Good (cases) (port wine stain lesion; [17]): 7
Ineffective (cases) (port wine stain lesion; [17]): 0
Moderate (cases) (port wine stain lesion; [17]): 2
Response rate % (port wine stain lesion; [17]): 11/11
Significant response rate % (port wine stain lesion; [17]): 9/11
Excellent (cases) (port wine stain lesion; [18]): 6
Excellent rate % (port wine stain lesion; [18]): 6/10
Good (cases) (port wine stain lesion; [18]): 2
Ineffective (cases) (port wine stain lesion; [18]): 1
Moderate (cases) (port wine stain lesion; [18]): 1
Response rate % (port wine stain lesion; [18]): 9/10
Significant response rate % (port wine stain lesion; [18]): 8/10
Excellent (cases) (port wine stain lesion; [19]): 0
Excellent rate % (port wine stain lesion; [19]): 0/0
Good (cases) (port wine stain lesion; [19]): 0
Ineffective (cases) (port wine stain lesion; [19]): 3
Moderate (cases) (port wine stain lesion; [19]): 0
Response rate % (port wine stain lesion; [19]): 0/0
Significant response rate % (port wine stain lesion; [19]): 0/0
Excellent (cases) (port wine stain lesion; [20]): 0
Excellent rate % (port wine stain lesion; [20]): 0/0
Good (cases) (port wine stain lesion; [20]): 1
Ineffective (cases) (port wine stain lesion; [20]): 0
Moderate (cases) (port wine stain lesion; [20]): 0
Response rate % (port wine stain lesion; [20]): 1/1
Significant response rate % (port wine stain lesion; [20]): 1/1
